Reference: US12478624B2, “Heterocyclic derivatives, pharmaceutical compositions and their use in the treatment or amelioration of cancer” (Tolremo Therapeutics AG, priority 2019, dated 2025)

Key:
A375 cells = test: Assay 1: A375 cells treated with S1152, S1008 and compound, immunofluorescence (sc-365823) signal; format: cell-based; conditions: 1 μM S1152 + 0.5 μM S1008, one day
Procedure: One thousand four hundred A375 cells were seeded in each well of a 384 well microplate. One day later they were treated with 1 μM S1152 (Selleckchem) in dimethyl sulfoxide, 0.5 μM S1008 (Selleckchem) and dose ranges of invention compounds for one day in Dulbecco's Modified Eagle's Medium supplemented with 10% fetal calf serum and 2 mM (2S)-2-amino-4-carbamoylbutanoic acid. Wells were incubated with 4% polyoxymethylene (Sigma Aldrich 158127) at ambient temperature. […] After one minute phosphate-buffered saline was replaced with 0.2% polyethylene glycol octylphenyl ether in phosphate-buffered saline. […] 1% aminoethanoic acid in phosphate-buffered saline was added for ten minutes at ambient temperature. […] After one hour at ambient temperature in the dark, signal in wells was measured with a Acumen Cellista. 3,8-Diamino-5-[3-(diethylmethylammonio)propyl]-6-phenylphenanthridinium diiodide-positive objects were defined in FL3 (565-600 nm) with a perimeter between 50-800 μm and a total intensity of 10000-1000000 FLU. Signal in FL2 (500-530 nm) was measured in defined objects. A normalized ratio of total In FL2 over total In FL3 staining was log transformed. A non-linear regression (variable slope, 4 parameters) was used to calculate EC50 values using GraphPad Prism (Version 7.0d).
In an alternative procedure, assay 1 has been affected by changing the counteratain. […] Cells were incubated with 0.5 μg/ml 2-(4-Amidinophenyl)-6-indolecarbamidine dihydrochloride, 4′,6-Diamidino-2-phenylindole dihydrochloride (Sigma D9542) in phosphate-buffered saline for at least 30 minutes at ambient temperature in the dark. A Celigo Imager (Nexcelom) was used to acquire images in the blue and green channel. The blue channel was used as a mask to define the area for the green signal. The average integrated intensity of the green signal was normalized and a non-linear regression (variable slope, 4 parameter) was used to calculate the EC50 values using GraphPad Prism (Version 8.4)

OPM-2 = test: Assay 2: multiple myeloma cellular efficacy, PrestoBlue cell proliferation/survival; format: cell-based; conditions: Homo sapiens, 96 h, OPM-2 cells, 4 days
Procedure: Multiple Myeloma Cellular Efficacy:
10000 OPM-2 (ACC50; DSMZ) were plated into wells of a 384 well plate (Greiner 781090). Cells were treated for 4 days with a dose range of compound or vehicle. At the end of the experiment cells were stained directly with PrestoBlue (ThermoFisher Scietific; A13262) for 2 hours at 37° C. in a humidified incubator according to manufactor's instruction. To assess the relative cell number the PrestoBlue signal was measured using either a TecanM1000Pro reader or a Tecan Sparks reader following the manufactor's instructions. Background (no cells) values were subtracted and set in relation to the vehicle control. To assess the EC50 of each compound the relative fluorescence value was plotted against the compound concentration after log transformation. Data were fitted in a nonlinear manner with a variable slope (four parameters) using graphpad prism software. Cellular efficacy of compounds was evaluated in the multiple myeloma cell line OPM-2 using the cell proliferation/survival assay PrestoBlue. EC50 values are classified as indicated below.

Row | EC50 (A375 cells) [nM] | Compound | EC50 (OPM-2) [nM]
1 | 200 to 1000 | CC(=O)Nc1cc(Nc2cc(-c3cccnc3)nc([C@@H]3CC[C@H](C)N(C(C)=O)C3)n2)cc(C(F)F)c1 [Compound 00060, N-(3-((2-((3R,6S)-1-acetyl-6-methylpiperidin-3-yl)-6-(pyridin-3-yl)pyrimidin-4-yl)amino)-5-(difluoromethyl)phenyl)acetamide] | < 200
2 | < 200 | CC(=O)N1C[C@H](c2nc(Nc3cc(F)cc(N4CCOCC4)c3)cc(-c3cnccn3)n2)CC[C@@H]1C [Compound 00070, 1-((2S,5R)-5-(4-((3-fluoro-5-morpholinophenyl)amino)-6-(pyrazin-2-yl)pyrimidin-2-yl)-2-methylpiperidin-1-yl)ethan-1-one] | < 200
3 | < 200 | CC(=O)N1C[C@H](c2nc(Nc3ccnc(C(F)(F)F)c3)cc(-c3cccnc3)n2)CC[C@@H]1C [Compound 00123, 1-((2S,5R)-2-methyl-5-(4-(pyridin-3-yl)-6-((2-(trifluoromethyl)pyridin-4-yl)amino)pyrimidin-2-yl)piperidin 1-yl)ethan-1-one] | < 200
4 | < 200 | CC(=O)N1C[C@H](c2nc(Nc3cccc(-c4cn(C)nn4)c3)cc(-c3cnccn3)n2)CC[C@@H]1C [Compound 00068, 1-((2S,5R)-2-methyl-5-(4-((3-(1-methyl-1H-1,2,3-triazol-4-yl)phenyl)amino)-6-(pyrazin-2-yl)pyrimidin-2-yl)piperidin-1-yl)ethan-1-one] | < 200
5 | < 200 | CC(=O)N1C[C@H](c2nc(Nc3cccc(-c4nnco4)c3)cc(-c3cccnc3)n2)CC[C@@H]1C [Compound 00141, 1-((2S,5R)-5-(4-((3-(1,3,4-oxadiazol-2-yl)phenyl)amino)-6-(pyridin-3-yl)pyrimidin-2-yl)-2-methylpiperidin-1-yl)ethan-1-one] | < 200
6 | < 200 | CC(=O)N1C[C@H](c2nc(Nc3cccc(-n4ccnn4)c3)cc(-c3cccnc3)n2)CC[C@@H]1C [Compound 00083, 1-((2S,5R)-5-(4-((3-(1H-1,2,3-triazol-1-yl)phenyl)amino)-6-(pyridin-3-yl)pyrimidin-2-yl)-2-methylpiperidin-1-yl)ethan1-one] | 200 to 1000
7 | 200 to 1000 | CC(=O)N1C[C@H](c2nc(-c3cnccn3)cc(N(C)c3ccnc(C)c3)n2)CC[C@@H]1C [Compound 00167, 1-((2S,5R)-2-methyl-5-(4-(methyl(2-methylpyridin-4-yl)amino)-6-(pyrazin-2-yl)pyrimidin-2-yl)piperidin-1-yl)ethan-1-one] | 1000 to 10000
8 | < 200 | COCCOc1cncc(-c2cc(Nc3ccnc(F)c3)nc([C@@H]3CC[C@H](C)N(C(C)=O)C3)n2)c1 [Compound 00119, 1-((2S,5R)-5-(4-((2-fluoropyridin-4-yl)amino)-6-(5-(2-methoxyethoxy)pyridin-3-yl)pyrimidin-2-yl)-2-methylpiperidin-1-yl)ethan-1-one] | < 200
9 | < 200 | CC(=O)N1C[C@H](c2nc(Nc3ccnc(C(C)(F)F)c3)cc(-c3cccnc3)n2)CC[C@@H]1C [Compound 00146, 1-((2S,5R)-5-(4-((2-(1,1-difluoroethyl)pyridin-4-yl)amino)-6-(pyridin-3-yl)pyrimidin-2-yl)-2-methylpiperidin-1-yl)ethan-1-one] | 200 to 1000
10 | < 200 | CC(=O)N1C[C@H](c2nc(Nc3ccnc(F)c3)cc(-c3cncc4c3ccn4C)n2)CC[C@@H]1C [Compound 00118, 1-((2S,5R)-5-(4-((2-fluoropyridin-4-yl)amino)-6-(1-methyl-1H-pyrrolo[2,3-c]pyridin-4-yl)pyrimidin-2-yl)-2-methylpiperidin-1-yl)ethan-1-one] | < 200
11 | < 200 | CC(=O)N1C[C@H](c2nc(Nc3cc(C)nc(-c4cnn(C)c4)c3)cc(-c3cccnc3)n2)CC[C@@H]1C [Compound 00161, 1-((2S,5R)-2-methyl-5-(4-((2-methyl-6-(1-methyl-1H-pyrazol-4-yl)pyridin-4-yl)amino)-6-(pyridin-3-yl)pyrimidin-2-yl)piperidin-1-yl)ethan-1-one] | < 200
12 | < 200 | CC(=O)N1C[C@H](c2nc(Nc3cccc(-c4ncn(C)n4)c3)cc(-c3cccnc3)n2)CC[C@@H]1C [Compound 00052, 1-((2S,5R)-2-methyl-5-(4-((3-(1-methyl-1H-1,2,4-triazol-3-yl)phenyl)amino)-6-(pyridin-3-yl)pyrimidin-2-yl)piperidin-1-yl)ethan-1-one] | < 200
13 | 200 to 1000 | CC(=O)N1C[C@H](c2nc(Nc3cc(C)ncn3)cc(-c3cnccn3)n2)CC[C@@H]1C [Compound 00151, 1-((2S,5R)-2-methyl-5-(4-((6-methylpyrimidin-4-yl)amino)-6-(pyrazin-2-yl)pyrimidin-2-yl)piperidin-1-yl)ethan-1-one] | 200 to 1000
14 | < 200 | CC(=O)N1C[C@H](c2nc(Nc3cccc(N4CCOC4=O)c3)cc(-c3cccnc3)n2)CC[C@@H]1C [Compound 00088, 3-(3-((2-((3R,6S)-1-acetyl-6-methylpiperidin-3-yl)-6-(pyridin-3-yl)pyrimidin-4-yl)amino)phenyl)oxazolidin-2-one] | 200 to 1000
15 | < 200 | CC(=O)N1C[C@H](c2nc(Nc3ccnc(-c4cnn(C5CCOCC5)c4)c3)cc(-c3cccnc3)n2)CC[C@@H]1C [Compound 00159, 1-((2S-5R)-2-methyl-5-(4-(pyridin-3-yl)-6-((2-(1-(tetrahydro-2H-pyran-4-yl)-1H-pyrazol-4-yl)pyridin-4-yl)amino)pyrimidin-2-yl)piperidin-1-yl)ethan-1-one] | < 200
16 | 200 to 1000 | CC(=O)N1C[C@H](c2nc(Nc3cncc(C(F)F)c3)cc(-c3cccnc3)n2)CC[C@@H]1C [Compound 00107, 1-((2S,5R)-5-(4-((5-(difluoromethyl)pyridin-3-yl)amino)-6-(pyridin-3-yl)pyrimidin-2-yl)-2-methylpiperidin-1-yl)ethan-1-one] | 200 to 1000
17 | < 200 | CC(=O)N1C[C@H](c2nc(Nc3ccnc(C(F)F)c3)cc(-c3cnccn3)n2)CC[C@@H]1C [Compound 00130, 1-((2S,5R)-5-(4-((2-(difluoromethyl)pyridin-4-yl)amino)-6-(pyrazin-2-yl)pyrimidin-2-yl)-2-methylpiperidin-1-yl)ethan-1-one] | < 200
18 | < 200 | CC(=O)N1C[C@H](c2nc(Nc3cc(C)nc(C(F)F)c3)cc(-c3cnccn3)n2)CC[C@@H]1C [Compound 00145, 1-((2S,5R)-5-(4-((2-(difluoromethyl)-6-methylpyridin-4-yl)amino)-6-(pyrazin-2-yl)pyrimidin-2-yl)-2-methylpiperidin-1-yl)ethan-1-one] | < 200
19 | < 200 | COc1cc(Nc2cc(-c3cnccn3)nc([C@@H]3CC[C@H](C)N(C(C)=O)C3)n2)cc(C)n1 [Compound 00150, 1-((2S,5R)-5-(4-((2-methoxy-6-methylpyridin-4-yl)amino)-6-(pyrazin-2-yl)pyrimidin-2-yl)-2-methylpiperidin-1-yl)ethan-1-one] | < 200
20 | 200 to 1000 | CC(=O)N1C[C@H](c2nc(Nc3cc(F)ccn3)cc(-c3cnccn3)n2)CC[C@@H]1C [Compound 00156, 1-((2S,5R)-5-(4-((4-fluoropyridin-2-yl)amino)-6-(pyrazin2-yl)pyrimidin-2-yl)-2-methylpiperidin-1-yl)ethan-1-one] | 200 to 1000
21 | < 200 | CC(=O)N1C[C@H](c2nc(Nc3ccc4oc(C)nc4c3)cc(-c3cccnc3)n2)CC[C@@H]1C [Compound 00147, 1-((2S,5R)-2-methyl-5-(4-((2-methylbenzo[d]oxazol-5-yl)amino)-6-(pyridin-3-yl)pyrimidin-2-yl)piperidin-1-yl)ethan-1-one] | < 200
22 | < 200 | CC(=O)N1C[C@H](c2nc(Nc3cccc(C(C)(F)F)c3)cc(-c3cccnc3)n2)CC[C@@H]1C [Compound 00058, 1-((2S,5R)-5-(4-((3-(1,1-difluoroethyl)phenyl)amino)-6-(pyridin-3-yl)pyrimidin-2-yl)-2-methylpiperidin-1-yl)ethan-1-one] | 200 to 1000
